Measured values as given in patent US20230172204A1 (BASF SE, priority 2020, published 2023).

Tests used:
[1] = tested on: Phakopsora pachyrhizi (F129L); test: Protective control of soybean rust on soybeans (PHAKPA P2); format: in vivo; conditions: for % PHAKPA (F129L) Disease level P2 at 4 ppm: protective P2, 4 ppm; for % PHAKPA (F129L) Disease level P2 at 4 ppm / % PHAKPA (F129L) Disease level P2 at 16 ppm: soybean rust F129L; for % PHAKPA (F129L) Disease level P2 at 16 ppm: protective P2, 16 ppm; for PHAKPA (F129L) Disease level (%) P2 at 16 ppm / PHAKPA (F129L) Disease level (%) P2 at 4 ppm: P2 protective, % diseased leaf area
[2] = tested on: Phakopsora pachyrhizi (F129L); test: Protective control of soybean rust on soybeans (PHAKPA P6); format: in vivo; conditions: for % PHAKPA (F129L) Disease level P6 at 4 ppm: protective P6, 4 ppm; for % PHAKPA (F129L) Disease level P6 at 4 ppm / % PHAKPA (F129L) Disease level P6 at 16 ppm: soybean rust F129L; for % PHAKPA (F129L) Disease level P6 at 16 ppm: protective P6, 16 ppm; for PHAKPA (F129L) Disease level (%) P6 at 16 ppm / PHAKPA (F129L) Disease level (%) P6 at 4 ppm: P6 protective, % diseased leaf area

| Structure (SMILES) | % PHAKPA (F129L) Disease level P2 at 4 ppm [1] | % PHAKPA (F129L) Disease level P2 at 16 ppm [1] | % PHAKPA (F129L) Disease level P6 at 4 ppm [2] | % PHAKPA (F129L) Disease level P6 at 16 ppm [2] | PHAKPA (F129L) Disease level (%) P2 at 16 ppm [1] | PHAKPA (F129L) Disease level (%) P6 at 16 ppm [2] | PHAKPA (F129L) Disease level (%) P2 at 4 ppm [1] | PHAKPA (F129L) Disease level (%) P6 at 4 ppm [2] |
| --- | --- | --- | --- | --- | --- | --- | --- | --- |
| CNC(=O)/C(=N/OC)c1cccc(C)c1CO/N=C(\C)c1cc(C2CC2)cc(C(F)(F)F)c1 [compound 150] | 56% | 8% | 70% | 29% | – | – | – | – |
| CO/N=C(/C(=O)OC)c1cccc(C)c1CO/N=C(\C)c1ccc(C)cc1 [Ex. 5, Methyl (2E)-2-methoxyimino-2-[3-methyl-2-[[(E)-1-(p-tolyl)ethylideneamino]oxymethyl]phenyl]acetate] | 28% | 1% | 50% | 4% | 1% | 4% | – | – |
| CCc1ccc(/C(C)=N/OCc2c(C)cccc2/C(=N\OC)C(=O)OC)cc1 [compound 183] | 16% | 0% | 38% | 2% | – | – | – | – |
| CC/C(=N\OCc1c(C)cccc1/C(=N\OC)C(=O)OC)c1cccc(C(F)(F)F)c1 [compound 204] | 50% | 4% | 80% | 5% | – | – | – | – |
| CO/N=C(/C(=O)OC)c1cccc(C)c1CO/N=C(\C)c1ccccc1Cl [compound 116] | 85% | 57% | 85% | 67% | – | – | – | – |
| CO/N=C(/C(=O)OC)c1cccc(C)c1CO/N=C(\C)c1cc(Cl)cc(Cl)c1F [compound 110] | 20% | 3% | 30% | 1% | – | – | – | – |
| COC=C(C(=O)OC)c1cccc(C)c1CON=C(C)c1ccc(OC(F)(F)F)cc1Cl [compound 463] | 6% | 0% | 3% | 0% | – | – | – | – |
| CNC(=O)/C(=N/OC)c1cccc(C)c1CO/N=C(\C)c1ccc(C)cc1 [Ex. 6, (2E)-2-Methoxyimino-N-methyl-2-[3-methyl-2-[[(E)-1-(p-tolyl)ethylideneamino]oxymethyl]phenyl]acetamide] | 1% | 0% | 19% | 1% | – | – | 0% | 23% |
| CNC(=O)/C(=N/OC)c1cccc(C)c1CO/N=C(\C)c1cccc(C#CC(F)(F)F)c1 [compound 57] | 25% | 8% | 43% | 15% | – | – | – | – |
| CCc1ccccc1/C(C)=N/OCc1c(C)cccc1/C(=N\OC)C(=O)OC [compound 175] | 100% | 97% | 100% | 93% | – | – | – | – |
| C#Cc1cc(F)c(F)c(/C(C)=N/OCc2c(C)cccc2/C(=N\OC)C(=O)NC)c1 [compound 243] | 4% | 0% | 37% | 1% | – | – | – | – |
| CO/N=C(/C(=O)OC)c1cccc(C)c1CO/N=C(\C)c1ccc(-c2cc(C)on2)cc1 [compound 63] | 90% | 77% | 93% | 77% | – | – | – | – |
| CO/N=C(/C(=O)OC)c1cccc(C)c1CO/N=C(\C)c1cccc(C(C)(F)F)c1 [compound 302] | 47% | 4% | 47% | 3% | – | – | – | – |
| CNC(=O)/C(=N/OC)c1cccc(C)c1CO/N=C(\C)c1cccc(Br)c1F [compound 141] | 2% | 0% | 2% | 0% | – | – | – | – |
| CCc1cccc(/C(=N\OC)C(=O)NC)c1CO/N=C(\C)c1cccc(C(F)(F)F)c1 [compound 62] | 43% | 0% | 60% | 3% | – | – | – | – |
| CNC(=O)/C(=N/OC)c1ccccc1CO/N=C(\C)c1cc(Cl)cc(Cl)c1 [reference compound] | – | – | – | – | – | – | 100% | 97% |
| CNC(=O)/C(=N/OC)c1cccc(C)c1CO/N=C(/c1ccccc1)C(F)(F)F [compound 458] | 93% | 57% | 83% | 50% | – | – | – | – |
| CNC(=O)/C(=N/OC)c1cccc(C)c1CO/N=C(\C)c1ccc(C)cc1OC(F)(F)F [compound 340] | 23% | 4% | 42% | 7% | – | – | – | – |

| Structure (SMILES) | % PHAKPA (F129L) Disease level P2 at 4 ppm [1] | % PHAKPA (F129L) Disease level P2 at 16 ppm [1] | % PHAKPA (F129L) Disease level P6 at 4 ppm [2] | % PHAKPA (F129L) Disease level P6 at 16 ppm [2] | PHAKPA (F129L) Disease level (%) P2 at 16 ppm [1] | PHAKPA (F129L) Disease level (%) P6 at 16 ppm [2] | PHAKPA (F129L) Disease level (%) P2 at 4 ppm [1] | PHAKPA (F129L) Disease level (%) P6 at 4 ppm [2] |
| --- | --- | --- | --- | --- | --- | --- | --- | --- |
| CO/N=C(/C(=O)OC)c1cccc(C)c1CO/N=C(\C)c1c(Cl)cccc1Cl [compound 171] | 100% | 100% | 80% | 50% | – | – | – | – |
| CNC(=O)/C(=N/OC)c1cccc(C)c1CO/N=C(\C)c1cccc(C(C)(F)F)c1 [compound 303] | 2% | 0% | 12% | 0% | – | – | – | – |
| CO/N=C(/C(=O)OC)c1cccc(C)c1CO/N=C(\C)c1cc(-c2ccccc2)cc(C(F)(F)F)c1 [compound 144] | 87% | 80% | 92% | 90% | – | – | – | – |
| CO/N=C(/C(=O)OC)c1cccc(C)c1CO/N=C(\C)c1ccccc1OC(F)F [compound 253] | 100% | 87% | 100% | 57% | – | – | – | – |
| COC=C(C(=O)OC)c1cccc(C)c1CON=C(C)c1ccccc1OC(F)(F)F [compound 462] | 37% | 6% | 55% | 10% | – | – | – | – |
| CO/N=C(/C(=O)OC)c1ccccc1CO/N=C(\C)c1cccc(C(F)(F)F)c1 [Trifloxystrobin, trifloxystrobin, reference compound] | – | – | – | – | 17% | 33% | 71% | 79% |
| CNC(=O)/C(=N/OC)c1cccc(C)c1CO/N=C(\C)c1cc(C)ccc1C [compound 278] | 90% | 60% | 90% | 93% | – | – | – | – |
| CNC(=O)/C(=N/OC)c1cccc(C)c1CO/N=C(\C)c1c(F)cc(Br)cc1C(F)(F)F [compound 358] | 77% | 17% | 83% | 18% | – | – | – | – |
| CNC(=O)/C(=N/OC)c1cccc(C)c1CO/N=C(\C)c1ccc(C)c(C)c1 [compound 139] | 47% | 2% | 72% | 24% | – | – | – | – |
| CO/N=C(/C(=O)OC)c1cccc(C)c1CO/N=C(\C)c1ccc(-c2ccc(F)cc2)cc1C(F)(F)F [compound 425] | 27% | 28% | 53% | 40% | – | – | – | – |
| CNC(=O)/C(=N/OC)c1cccc(C)c1CO/N=C(/c1ccccc1)C(C)C [compound 389] | 28% | 4% | 43% | 3% | – | – | – | – |
| C#Cc1cccc(/C(C)=N/OCc2c(C)cccc2/C(=N\OC)C(=O)OC)c1 [compound 53] | 63% | 17% | 100% | 47% | – | – | – | – |
| CO/N=C(/C(=O)OC)c1cccc(C)c1CO/N=C(\C)c1cc(F)ccc1Br [compound 254] | 100% | 77% | 100% | 100% | – | – | – | – |
| CO/N=C(/C(=O)OC)c1ccccc1CO/N=C(\C)c1ccc(Cl)cc1 [reference compound] | – | – | – | – | 63% | 43% | – | – |
| CO/N=C(/C(=O)OC)c1cccc(C)c1CO/N=C(\C)c1ccc(F)cc1C(F)(F)F [compound 263] | 80% | 15% | 73% | 22% | – | – | – | – |
| CNC(=O)/C(=N/OC)c1cccc(C)c1CO/N=C(\C)c1ccccc1OC(F)F [compound 252] | 50% | 3% | 87% | 32% | – | – | – | – |
| C#Cc1cccc(/C(C)=N/OCc2c(C)cccc2/C(=N\OC)C(=O)NC)c1 [compound 54] | 0% | 1% | 20% | 0% | – | – | – | – |
